Laboratory results as given in patent publication US12343326B2, “Psychoactive medicines and their use for treating psychiatric and neurological conditions and disorders” (Transcend Therapeutics, Inc., priority 2021, dated 2025).
Like-named read-outs stand apart in the source and are kept apart here.

What was measured:
[1] = retrospective reports / meta-analysis of overdose deaths; cited from earlier work
mice = settings: MDMA 7.5 mg/kg 30 minutes prior to extinction training (Young et al. 2015); cited from earlier work
[2] = tested on: myelin basic protein (MBP); experiment: Immunohistochemistry of myelin basic protein; assay type: in vivo, rat; settings: 10 mg/kg IP, 24 h
Experimental: Immunohistochemistry: The in-life portion of the study was conducted at WuXi Apptec (Cranbury, NJ). Sectioning and staining of brains took place at Neuroscience Associates (NSA, Knoxville, TN). […] Brains were post-fixed in PFA before shipment to NSA for processing and staining. Hemisected brains were mounted, sectioned and stained using standard protocols with myelin-basic protein primary antibody (MBP SMI-99, 1:5000, Biolegend, San Diego, CA) and anti-mouse biotinylated secondary antibody (BA-2001, Vector Laboratories, Newark, CA). Slides were imaged using a Huron Digital Pathology TissueScope LE120 whole slide scanning system. 20× objective was used with a 0.4 μm/pixel resolution.

[3] = tested on: gene expression in amygdala, frontal cortex, hippocampus; experiment: RNA-sequencing of brain areas after a single dose; assay type: in vivo, rat
5HT2C receptor [4] = target: T1, 5HT2C receptor (Homo sapiens, UniProt P28335); experiment: GPCRmax screen, antagonist mode; assay type: cell-based; settings: 1 or 10 mM; threshold 50%
T1 construct: beta-galactosidase enzyme fragment (PathHunter complementation tag); host or cells: PathHunter cell lines

5HT2A receptor = target: T2, 5HT2A receptor (Homo sapiens, UniProt P28223); experiment: GPCRmax screen, agonist mode; assay type: cell-based; settings: 1 or 10 mM; threshold 30%
T2 construct: beta-galactosidase enzyme fragment (PathHunter complementation tag); host or cells: PathHunter cell lines

5HT2C receptor [5] = target: T1, 5HT2C receptor; experiment: GPCRmax screen, agonist mode; assay type: cell-based; settings: 1 or 10 mM; threshold 30%
[6] = tested on: rats (Sprague Dawley; Flinders Sensitive Line); settings: cited from earlier work

T1 sequence (P28335 33-458): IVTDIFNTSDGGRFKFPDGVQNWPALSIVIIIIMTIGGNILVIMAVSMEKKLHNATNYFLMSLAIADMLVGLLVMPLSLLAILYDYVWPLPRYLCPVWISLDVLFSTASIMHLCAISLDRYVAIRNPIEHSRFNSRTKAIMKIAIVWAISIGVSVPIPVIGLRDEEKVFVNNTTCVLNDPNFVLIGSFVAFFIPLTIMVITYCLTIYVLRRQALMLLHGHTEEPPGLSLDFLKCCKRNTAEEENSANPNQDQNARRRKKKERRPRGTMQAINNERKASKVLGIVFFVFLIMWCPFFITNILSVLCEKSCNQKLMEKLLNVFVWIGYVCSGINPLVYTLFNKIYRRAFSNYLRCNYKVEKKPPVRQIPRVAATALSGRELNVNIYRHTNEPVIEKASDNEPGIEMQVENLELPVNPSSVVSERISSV
T2 sequence (P28223 whole entry, the tested form may be a part): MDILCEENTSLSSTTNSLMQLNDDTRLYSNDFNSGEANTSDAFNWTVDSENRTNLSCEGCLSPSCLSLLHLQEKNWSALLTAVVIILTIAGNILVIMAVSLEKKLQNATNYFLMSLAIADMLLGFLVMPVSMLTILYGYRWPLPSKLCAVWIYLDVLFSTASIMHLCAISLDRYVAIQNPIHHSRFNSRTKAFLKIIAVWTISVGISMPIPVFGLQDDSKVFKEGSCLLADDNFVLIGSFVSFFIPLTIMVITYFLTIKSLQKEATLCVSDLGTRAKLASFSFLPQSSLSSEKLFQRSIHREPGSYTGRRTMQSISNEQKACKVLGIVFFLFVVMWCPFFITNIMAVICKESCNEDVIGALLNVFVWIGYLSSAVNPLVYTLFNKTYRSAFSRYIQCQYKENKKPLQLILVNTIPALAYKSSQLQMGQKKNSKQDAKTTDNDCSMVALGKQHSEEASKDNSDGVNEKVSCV

In the case of `CNC(C)Cc1ccc2c(c1)OCO2` (racemic) [MDMA, 3,4-Methylenedioxymethamphetamine], the “blood concentration in overdose deaths” value [1] is listed as 0.478 to 53.9 µg/mL, the “reduced freezing vs. saline (extinction recall)” value (mice) is listed as 35% and the “MBP expression, basolateral nucleus of the amygdala, vs. vehicle” value [2] is listed as “significant reduction in MBP”. The “MBP expression, central nucleus of the amygdala, vs. vehicle” value [2] was “significant reduction in MBP”, the “MBP expression, cortex (control region)” value [2] was “No change in MBP” and the “more genes regulated than methylone, frontal cortex” value ([3]; 10 mg/kg IP) was roughly 72%. The “genes regulated by MDMA that are also regulated by methylone, amygdala” value ([3]; 10 mg/kg IP each) was 7%, the “antagonist activity (% inhibition)” value (5HT2C receptor [4]) was 52.2% and the agonist % activity (5HT2A receptor) was 27.5%. The agonist % activity (5HT2C receptor [5]) was 28.0%, the “reduction in immobility (FST)” value ([6]; MDMA 5 mg/kg, Flinders Sensitive Line rats) was 45% and the “reduction in immobility (FST)” value ([6]; MDMA 5 mg/kg, Sprague Dawley rats (Majumder et al. 2011)) was 45%. The “reduction in immobility (FST)” value ([6]; MDMA 10 mg/kg, Flinders Sensitive Line rats) was 93% and the “reduction in immobility (FST)” value ([6]; MDMA 10 mg/kg, Sprague Dawley rats (Majumder et al. 2011)) was 78%.
